According to PubChem BioAssay AID2060883 (Molecular Pharmacology Branch, DTP, NCI, 2025):

System: 843782-103-R-J1-PDC complex spheroid viability
Assay: Anticancer human tumor 843782-103-R-J1-PDC patient-derived lung adenocarcinoma cell line growth inhibition [RAS]
Conditions: for IC50: curve of first compound; for viability, T/C: stronger effect = lower value
Outline: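 Agents were tested in combination matrices in half-log decrements from a top concentration at or near clinical Cmax (10 microM if undetermined). Targets were multi-cell spheroids of tumour lines plus HUVEC and MSC stromal cells.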
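Also: viability read after seven days of compound exposure.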

CCc1c2c(nc3ccc(O)cc13)-c1cc3c(c(=O)n1C2)COC(=O)[C@]3(O)CC + CCn1c(-c2cc(N3CCN(C)CC3)cnc2C(C)OC)c2c3cc(ccc31)-c1csc(n1)CC(NC(=O)C1CC1C)C(=O)N1CCCC(N1)C(=O)OCC(C)(C)C2
IC50 (second compound 0.000949 µM): 1.49 nM | IC50 (second compound 0.003 µM): 0.963 nM | IC50 (second compound 0.00949 µM): < 0.949 nM | IC50 (second compound 0.03 µM): < 0.949 nM | IC50 (second compound 0.0949 µM): < 0.949 nM | IC50 (second compound 0.3 µM): < 0.949 nM | viability, T/C (second compound 0.000949 µM, first compound 0.000949 µM): 68.4% | viability, T/C (second compound 0.000949 µM, first compound 0.003 µM): 21.8% | viability, T/C (second compound 0.000949 µM, first compound 0.00949 µM): 4.84% | viability, T/C (second compound 0.000949 µM, first compound 0.03 µM): 2.16% | viability, T/C (second compound 0.000949 µM, first compound 0.0949 µM): 1.13% | viability, T/C (second compound 0.000949 µM, first compound 0.3 µM): 0.96% | viability, T/C (second compound 0.003 µM, first compound 0.000949 µM): 50.8% | viability, T/C (second compound 0.003 µM, first compound 0.003 µM): 20.9% | viability, T/C (second compound 0.003 µM, first compound 0.00949 µM): 5.17% | viability, T/C (second compound 0.003 µM, first compound 0.03 µM): 1.82% | viability, T/C (second compound 0.003 µM, first compound 0.0949 µM): 1.45% | viability, T/C (second compound 0.003 µM, first compound 0.3 µM): 1.05% | viability, T/C (second compound 0.00949 µM, first compound 0.000949 µM): 38% | viability, T/C (second compound 0.00949 µM, first compound 0.003 µM): 17.9% | viability, T/C (second compound 0.00949 µM, first compound 0.00949 µM): 5.27% | viability, T/C (second compound 0.00949 µM, first compound 0.03 µM): 2.03% | viability, T/C (second compound 0.00949 µM, first compound 0.0949 µM): 2.15% | viability, T/C (second compound 0.00949 µM, first compound 0.3 µM): 0.92% | viability, T/C (second compound 0.03 µM, first compound 0.000949 µM): 18.9% | viability, T/C (second compound 0.03 µM, first compound 0.003 µM): 15.3% | viability, T/C (second compound 0.03 µM, first compound 0.00949 µM): 5.86% | viability, T/C (second compound 0.03 µM, first compound 0.03 µM): 2.53% | viability, T/C (second compound 0.03 µM, first compound 0.0949 µM): 1.38% | viability, T/C (second compound 0.03 µM, first compound 0.3 µM): 0.97% | viability, T/C (second compound 0.0949 µM, first compound 0.000949 µM): 14.2% | viability, T/C (second compound 0.0949 µM, first compound 0.003 µM): 13.4% | viability, T/C (second compound 0.0949 µM, first compound 0.00949 µM): 5.71% | viability, T/C (second compound 0.0949 µM, first compound 0.03 µM): 2.6% | viability, T/C (second compound 0.0949 µM, first compound 0.0949 µM): 1.4% | viability, T/C (second compound 0.0949 µM, first compound 0.3 µM): 1.46% | viability, T/C (second compound 0.3 µM, first compound 0.000949 µM): 13.5% | viability, T/C (second compound 0.3 µM, first compound 0.003 µM): 11.7% | viability, T/C (second compound 0.3 µM, first compound 0.00949 µM): 5.29% | viability, T/C (second compound 0.3 µM, first compound 0.03 µM): 2.41% | viability, T/C (second compound 0.3 µM, first compound 0.0949 µM): 1.96% | viability, T/C (second compound 0.3 µM, first compound 0.3 µM): 0.79%

C[C@@H](NC(=O)c1ncnc(N)c1Cl)c1ncc(C(=O)Nc2cc(C(F)(F)F)c(Cl)cn2)s1 + CCn1c(-c2cc(N3CCN(C)CC3)cnc2C(C)OC)c2c3cc(ccc31)-c1csc(n1)CC(NC(=O)C1CC1C)C(=O)N1CCCC(N1)C(=O)OCC(C)(C)C2
IC50 (second compound 0.000949 µM): > 10000 nM | IC50 (second compound 0.003 µM): > 10000 nM | IC50 (second compound 0.00949 µM): < 31.6 nM | IC50 (second compound 0.03 µM): < 31.6 nM | IC50 (second compound 0.0949 µM): < 31.6 nM | IC50 (second compound 0.3 µM): < 31.6 nM | viability, T/C (second compound 0.000949 µM, first compound 0.0316 µM): 84.4% | viability, T/C (second compound 0.000949 µM, first compound 0.1 µM): 78.1% | viability, T/C (second compound 0.000949 µM, first compound 0.316 µM): 85.8% | viability, T/C (second compound 0.000949 µM, first compound 1 µM): 79.6% | viability, T/C (second compound 0.000949 µM, first compound 3.16 µM): 89.8% | viability, T/C (second compound 0.000949 µM, first compound 10 µM): 84.3% | viability, T/C (second compound 0.003 µM, first compound 0.0316 µM): 68.9% | viability, T/C (second compound 0.003 µM, first compound 0.1 µM): 70% | viability, T/C (second compound 0.003 µM, first compound 0.316 µM): 67.5% | viability, T/C (second compound 0.003 µM, first compound 1 µM): 68.6% | viability, T/C (second compound 0.003 µM, first compound 3.16 µM): 74.6% | viability, T/C (second compound 0.003 µM, first compound 10 µM): 64.7% | viability, T/C (second compound 0.00949 µM, first compound 0.0316 µM): 41% | viability, T/C (second compound 0.00949 µM, first compound 0.1 µM): 51.6% | viability, T/C (second compound 0.00949 µM, first compound 0.316 µM): 48.4% | viability, T/C (second compound 0.00949 µM, first compound 1 µM): 44% | viability, T/C (second compound 0.00949 µM, first compound 3.16 µM): 53.6% | viability, T/C (second compound 0.00949 µM, first compound 10 µM): 48.2% | viability, T/C (second compound 0.03 µM, first compound 0.0316 µM): 22.9% | viability, T/C (second compound 0.03 µM, first compound 0.1 µM): 26.2% | viability, T/C (second compound 0.03 µM, first compound 0.316 µM): 28.8% | viability, T/C (second compound 0.03 µM, first compound 1 µM): 32.5% | viability, T/C (second compound 0.03 µM, first compound 3.16 µM): 34.7% | viability, T/C (second compound 0.03 µM, first compound 10 µM): 33.4% | viability, T/C (second compound 0.0949 µM, first compound 0.0316 µM): 19.8% | viability, T/C (second compound 0.0949 µM, first compound 0.1 µM): 18.8% | viability, T/C (second compound 0.0949 µM, first compound 0.316 µM): 19.8% | viability, T/C (second compound 0.0949 µM, first compound 1 µM): 21.6% | viability, T/C (second compound 0.0949 µM, first compound 3.16 µM): 24.3% | viability, T/C (second compound 0.0949 µM, first compound 10 µM): 23.7% | viability, T/C (second compound 0.3 µM, first compound 0.0316 µM): 15.4% | viability, T/C (second compound 0.3 µM, first compound 0.1 µM): 15.6% | viability, T/C (second compound 0.3 µM, first compound 0.316 µM): 19.1% | viability, T/C (second compound 0.3 µM, first compound 1 µM): 17.5% | viability, T/C (second compound 0.3 µM, first compound 3.16 µM): 19.6% | viability, T/C (second compound 0.3 µM, first compound 10 µM): 18.6%
